# Measurements from patent publication US11904052B2, “Methods for ameliorating infusion reactions” (ARBUTUS BIOPHARMA CORPORATION, priority 2016, dated 2024).
# Entries after “also recorded” stand apart in the source; their conditions may differ.
# Key:
# conscious minipig = test: Mean arterial blood pressure by radiotelemetry after LNP2 infusion in the conscious minipig; type: in vivo, Gottingen minipigs; settings: iv bolus 10 minutes prior to LNP2 infusion; ketorolac 1 mg/kg, dexamethasone 0.3 mg/kg
# Source text: (§1) Four (4) treatment naïve female Gottingen minipigs (Marshall Farms, N.Y.) were surgically implanted with a D70-PCT PhysioTel implantable radiotelemetry transmitter (Data Sciences International, St. Paul, Minn.) to allow for the measurement of physical activity, body temperature, ECG, heart rate, and arterial blood pressure. The pigs were allowed to recover from surgery for at least 7 days prior to use in the study.
# (§2) Following surgical recovery, the same four pigs (15-20 kg) received a 60-minute intravenous infusion of vehicle (0.9% saline), LNP2, LNP2+ketorolac, or LNP2+dexamethasone as outlined in the Table 1. Each treatment cohort was separated by a 7-day washout period.
# (§3) Just prior to each infusion and at approximately 1, 3, 6 and 24 hours after the start of each infusion, a mixed venous blood sample was taken, processed to plasma, stored frozen, and used for subsequent analysis of thromboxane B2 (11-dehydrothromboxane B2). Heart rate and arterial blood pressure was continuously recorded from 30 minutes prior to each infusion to 24 hours after the start of each infusion.
# thromboxane B2 = test: Plasma thromboxane B2 after LNP2 infusion in the conscious minipig; type: in vivo, Gottingen minipigs; settings: iv bolus 10 minutes prior to LNP2 infusion; ketorolac 1 mg/kg, dexamethasone 0.3 mg/kg
# Source text: as §1, §2, §3
smiles,measurement,setting,value
O=C(c1ccccc1)c1ccc2n1CCC2C(=O)O (stereo not drawn) [ketorolac],effect on the acute infusion reaction to LNP2 (increase in blood pressure),conscious minipig,completely prevented
same,effect on the delayed hypotension after LNP2 infusion,conscious minipig,prevented; also recorded: effectively mitigated
same,effect on the LNP2-induced increase in thromboxane B2,thromboxane B2,mitigated completely
